ChEMBL document CHEMBL1255475, “Mutant prevention concentrations of four carbapenems against gram-negative rods” (2010)
In brackets after ≈: the same amount, converted by molar mass.

How the values were obtained:
Pseudomonas aeruginosa [1] = experiment: Ratio of mutant prevention concentration to minimum Inhibitory concentration for Pseudomonas aeruginosa P319; format: functional
Acinetobacter baumannii = experiment: Antibacterial activity against Acinetobacter baumannii A848 after 24 hrs by agar dilution method; format: functional; conditions: A848, 24 h
Klebsiella pneumoniae [2] = experiment: Antibacterial activity against beta-lactamase-positive ESBL-positive Klebsiella pneumoniae E453 after 24 hrs by agar dilution method; format: functional; conditions: E453, 24 h
Escherichia coli = experiment: Antibacterial activity against beta-lactamase-positive ESBL-positive Escherichia coli E458 after 24 hrs by agar dilution method; conditions: E458, 24 h
Klebsiella pneumoniae [3] = experiment: Antibacterial activity against beta-lactamase-negative Klebsiella pneumoniae E357 after 24 hrs by agar dilution method; format: functional; conditions: E357, 24 h
Klebsiella pneumoniae [4] = experiment: Antibacterial activity against beta-lactamase-positive ESBL-negative Klebsiella pneumoniae E477 after 24 hrs by agar dilution method; format: functional; conditions: E477, 24 h
Pseudomonas aeruginosa [5] = experiment: Antibacterial activity against Pseudomonas aeruginosa P327 after 24 hrs by agar dilution method; conditions: P327, 24 h

SMILES	Ratio (Pseudomonas aeruginosa [1])	MIC (Acinetobacter baumannii)	MIC (Klebsiella pneumoniae [2])	MIC (Escherichia coli)	MIC (Klebsiella pneumoniae [3])	MIC (Klebsiella pneumoniae [4])	MIC (Pseudomonas aeruginosa [5])
C[C@@H](O)[C@H]1C(=O)N2C(C(=O)O)=C(S[C@@H]3CN[C@H](CNS(N)(=O)=O)C3)[C@H](C)[C@H]12 [DORIPENEM]	4	–	–	–	–	–	–
C[C@@H](O)[C@H]1C(=O)N2C(C(=O)O)=C(SCCNC=N)C[C@H]12 [IMIPENEM ANHYDROUS]	–	4 µg/mL (≈ 13.4 µM)	0.125 µg/mL (≈ 0.418 µM)	0.125 µg/mL (≈ 0.418 µM)	0.25 µg/mL (≈ 0.835 µM)	4 µg/mL (≈ 13.4 µM)	2 µg/mL (≈ 6.68 µM)
